From ChEMBL document CHEMBL1201862, “PubChem BioAssay data set” (2004)
Activity calls are given as the source filed them.

What was measured:
[1] = Luminescence Cell-Based Dose Response HTS to Identify Activators of Luciferase Translation or Activity in H4-C Neuroglioblastoma Cells. [Related pubchem assays: 1829 (Project Summary), 1814 (Primary HTS)]; assay type: functional
[2] = Luminescence Cell-Based Dose Retest to Confirm Activators of 5'UTR Stem-Loop Driven Alpha-Synuclein mRNA Translation in H4 Neuroglioblastoma Cells. [Related pubchem assays (depositor defined):AID1813, AID1829]; assay type: functional
[3] = Luminescence Cell-Based Dose Response HTS to Identify Activators of 5'UTR Stem-Loop Driven Prion Protein mRNA Translation in H4-C Neuroglioblastoma Cells. [Related pubchem assays: 1829 (Project Summary), 1814 (Primary HTS)]; assay type: functional
[4] = Luminescence Cell-Based Dose Confirmation HTS to Identify Activators of 5'UTR Stem-Loop Driven Alpha-Synuclein mRNA Translation in H4 Neuroglioblastoma Cells. [Related pubchem assays: 1829 (Project Summary), 1814 (Primary HTS)]; assay type: functional
[5] = Luminescence Cell-Based Dose Response HTS to Identify Activators of Luciferase Translation or Activity in H4 […] Cells. [Related pubchem assays: 1829 (Project Summary), 1814 (Primary HTS)]; assay type: functional
H4 = test: Luminescence Cell-Based Dose Response HTS to Identify Activators of 5'UTR Stem-Loop Driven Prion Protein mRNA Translation in H4 Neuroglioblastoma Cells. [Related pubchem assays: 1829 (Project Summary), 1814 (Primary HTS)]; assay type: functional; details: Homo sapiens
[6] = target: Envelope glycoprotein gp160 (Human immunodeficiency virus 1, UniProt Q6QLK5); test: cell-free HIV fusion peptide-binding blockers – biochemical, uHTS, fluorescence dequenching, […] (AID 1986)
BJ [7] = test: BJ-TERT fibroblast viability loss – cell-based, RAS-independent, luminescence, dose response (AID 1933); assay type: functional; details: Homo sapiens
BJ [8] = test: cells; assay type: functional, cell-based; details: Homo sapiens
BJ [9] = test: BJ-TERT-LT-ST fibroblast viability loss – cell-based, RAS-independent, luminescence, dose response (AID 1935); assay type: functional; details: Homo sapiens;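 note: BJ fibroblasts immortalized with TERT plus LT and ST oncogenes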
[10] = DRD fibroblast viability loss – cell-based, non-viral oncogenic, luminescence, dose response (AID 1934); assay type: functional; details: Homo sapiens
Mu-type opioid receptor = Mu-type opioid receptor (Homo sapiens, UniProt P35372); test: SAR Analysis of Antagonists of the MOR Receptor using an Image-Based Assay - Set 3. [Related pubchem assays (depositor defined):AID1777, AID1785, AID1786, AID1966, AID2133, AID2136, AID2284, AID2285, AID2420]; assay type: functional
[11] = target: Delta-type opioid receptor (Homo sapiens, UniProt P41143); test: SAR Analysis of Antagonists of the DOR Receptor using an Image-Based Assay - Set 3. [Related pubchem assays (depositor defined):AID1777, AID1785]; assay type: functional;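 note: U2OS cells expressing DOR1 and beta-arrestin GFP stimulated with 100 nM SNC80; imaging of GFP-tagged beta-arrestin moving into spots after receptor activation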
Chain of Delta-type opioid receptor (P41143 whole entry): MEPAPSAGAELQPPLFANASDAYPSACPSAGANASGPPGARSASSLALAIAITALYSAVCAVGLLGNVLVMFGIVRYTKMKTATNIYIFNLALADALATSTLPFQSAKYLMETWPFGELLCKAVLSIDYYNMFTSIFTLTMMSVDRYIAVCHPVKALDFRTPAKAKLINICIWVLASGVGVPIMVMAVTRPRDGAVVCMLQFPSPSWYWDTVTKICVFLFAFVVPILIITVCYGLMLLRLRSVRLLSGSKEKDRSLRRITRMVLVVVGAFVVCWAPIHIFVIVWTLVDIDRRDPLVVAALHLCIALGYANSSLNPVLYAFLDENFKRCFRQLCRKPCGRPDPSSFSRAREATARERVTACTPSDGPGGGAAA

[12] = target: T1, Kappa-type opioid receptor (Homo sapiens, UniProt P41145); test: SAR analysis of small molecule antagonists of the kappa opioid receptor via a luminescent beta-arrestin assay - Set 3. [Related pubchem assays (depositor defined):AID1777, AID1778, AID1785, AID1786, AID1966, AID2133, AID2136, AID2285, AID2495]; assay type: functional
T1 sequence (P41145 whole entry): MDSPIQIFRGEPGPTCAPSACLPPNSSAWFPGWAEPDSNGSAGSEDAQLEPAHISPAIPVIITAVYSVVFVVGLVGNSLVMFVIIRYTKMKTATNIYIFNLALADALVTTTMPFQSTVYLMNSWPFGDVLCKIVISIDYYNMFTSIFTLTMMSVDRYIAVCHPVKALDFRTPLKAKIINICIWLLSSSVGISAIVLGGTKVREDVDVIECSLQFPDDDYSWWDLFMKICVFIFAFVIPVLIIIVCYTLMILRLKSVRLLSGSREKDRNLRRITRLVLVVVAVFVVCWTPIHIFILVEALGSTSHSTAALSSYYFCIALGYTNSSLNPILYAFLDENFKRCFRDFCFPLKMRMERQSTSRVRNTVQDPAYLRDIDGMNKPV

[13] = target: T1, Kappa-type opioid receptor; test: SAR analysis of Antagonists of the Kappa Opioid Receptor (KOR) using an Image-Based Assay - Set 3. [Related pubchem assays (depositor defined):AID1777, AID1785]; assay type: functional
[14] = target: T1, Kappa-type opioid receptor; test: SAR analysis of Antagonists of the Kappa Opioid Receptor (KOR) using an Image-Based Assay - Set 4. [Related pubchem assays (depositor defined):AID1777, AID1785]; assay type: functional
Trypsin = Trypsin (Sus scrofa, UniProt P00761); test: trypsin protease activity blockade – biochemical, quenched peptide fluorescence, cherry-pick, selectivity assay for Rce1 protease inhibitor project, dose response (AID 488789)
[15] = target: T2, Voltage-gated N-type calcium channel alpha-1B subunit/Amyloid beta A4 precursor protein-binding family A member 1 (Homo sapiens, UniProt Q00975+Q02410); assay type: protein assay
T2 sequence (Q00975 whole entry): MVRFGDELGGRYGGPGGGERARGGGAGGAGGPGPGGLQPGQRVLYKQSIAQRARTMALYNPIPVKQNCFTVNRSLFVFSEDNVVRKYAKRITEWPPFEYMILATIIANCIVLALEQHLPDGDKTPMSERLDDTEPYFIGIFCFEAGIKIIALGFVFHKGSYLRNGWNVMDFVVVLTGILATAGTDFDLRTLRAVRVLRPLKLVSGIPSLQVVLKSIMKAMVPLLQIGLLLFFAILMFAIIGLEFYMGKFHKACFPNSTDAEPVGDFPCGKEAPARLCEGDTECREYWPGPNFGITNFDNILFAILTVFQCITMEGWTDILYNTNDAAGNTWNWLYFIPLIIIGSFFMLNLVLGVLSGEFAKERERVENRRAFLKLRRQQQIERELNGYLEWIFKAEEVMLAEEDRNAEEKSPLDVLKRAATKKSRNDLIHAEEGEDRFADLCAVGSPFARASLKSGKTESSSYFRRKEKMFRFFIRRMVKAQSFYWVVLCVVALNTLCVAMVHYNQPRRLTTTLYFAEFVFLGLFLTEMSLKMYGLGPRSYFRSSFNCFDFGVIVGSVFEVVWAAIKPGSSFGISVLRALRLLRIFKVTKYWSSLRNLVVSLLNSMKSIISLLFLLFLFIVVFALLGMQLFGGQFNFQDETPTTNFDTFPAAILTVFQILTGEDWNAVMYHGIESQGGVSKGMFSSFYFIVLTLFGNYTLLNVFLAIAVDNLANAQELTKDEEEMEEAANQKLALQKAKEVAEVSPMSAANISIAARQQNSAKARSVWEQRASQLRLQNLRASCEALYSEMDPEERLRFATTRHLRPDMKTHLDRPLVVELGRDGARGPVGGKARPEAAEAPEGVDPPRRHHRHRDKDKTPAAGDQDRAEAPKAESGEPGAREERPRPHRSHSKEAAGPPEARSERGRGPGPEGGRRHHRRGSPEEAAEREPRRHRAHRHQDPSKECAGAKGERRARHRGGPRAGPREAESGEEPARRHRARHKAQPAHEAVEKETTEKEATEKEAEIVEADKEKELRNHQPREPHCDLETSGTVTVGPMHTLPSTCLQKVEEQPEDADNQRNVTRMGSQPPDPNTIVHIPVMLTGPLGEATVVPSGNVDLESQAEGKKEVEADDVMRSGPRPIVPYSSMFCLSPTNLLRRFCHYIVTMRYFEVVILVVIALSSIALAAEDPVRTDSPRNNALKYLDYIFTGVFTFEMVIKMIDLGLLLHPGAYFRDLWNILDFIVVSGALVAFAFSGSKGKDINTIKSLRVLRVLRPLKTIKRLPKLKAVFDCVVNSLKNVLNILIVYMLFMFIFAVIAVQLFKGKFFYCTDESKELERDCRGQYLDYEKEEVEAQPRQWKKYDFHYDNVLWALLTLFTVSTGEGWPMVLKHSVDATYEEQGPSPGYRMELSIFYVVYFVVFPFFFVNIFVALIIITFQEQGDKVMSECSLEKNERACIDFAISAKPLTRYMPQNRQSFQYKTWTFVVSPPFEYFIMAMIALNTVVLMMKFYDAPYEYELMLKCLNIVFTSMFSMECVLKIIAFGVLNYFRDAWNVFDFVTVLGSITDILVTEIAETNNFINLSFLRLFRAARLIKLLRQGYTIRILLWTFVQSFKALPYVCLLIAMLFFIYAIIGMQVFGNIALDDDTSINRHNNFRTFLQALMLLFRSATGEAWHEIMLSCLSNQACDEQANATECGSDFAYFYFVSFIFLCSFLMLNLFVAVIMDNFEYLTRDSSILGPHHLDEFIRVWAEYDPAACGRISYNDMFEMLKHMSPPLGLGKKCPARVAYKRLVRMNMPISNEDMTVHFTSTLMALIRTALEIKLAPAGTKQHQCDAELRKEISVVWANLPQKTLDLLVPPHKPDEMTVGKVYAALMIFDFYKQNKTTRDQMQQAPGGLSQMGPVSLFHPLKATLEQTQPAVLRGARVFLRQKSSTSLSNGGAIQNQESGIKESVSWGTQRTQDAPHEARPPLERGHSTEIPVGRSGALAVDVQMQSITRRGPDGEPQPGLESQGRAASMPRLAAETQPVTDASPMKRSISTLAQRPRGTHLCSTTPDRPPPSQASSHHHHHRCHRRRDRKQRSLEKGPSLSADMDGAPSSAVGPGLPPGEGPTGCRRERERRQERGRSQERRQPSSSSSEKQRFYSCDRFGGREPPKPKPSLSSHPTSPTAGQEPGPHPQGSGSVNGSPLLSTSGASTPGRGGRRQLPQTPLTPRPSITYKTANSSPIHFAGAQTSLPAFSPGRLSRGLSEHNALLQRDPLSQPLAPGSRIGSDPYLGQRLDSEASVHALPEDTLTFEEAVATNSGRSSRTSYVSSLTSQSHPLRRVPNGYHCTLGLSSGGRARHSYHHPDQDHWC
T2 sequence (Q02410 whole entry): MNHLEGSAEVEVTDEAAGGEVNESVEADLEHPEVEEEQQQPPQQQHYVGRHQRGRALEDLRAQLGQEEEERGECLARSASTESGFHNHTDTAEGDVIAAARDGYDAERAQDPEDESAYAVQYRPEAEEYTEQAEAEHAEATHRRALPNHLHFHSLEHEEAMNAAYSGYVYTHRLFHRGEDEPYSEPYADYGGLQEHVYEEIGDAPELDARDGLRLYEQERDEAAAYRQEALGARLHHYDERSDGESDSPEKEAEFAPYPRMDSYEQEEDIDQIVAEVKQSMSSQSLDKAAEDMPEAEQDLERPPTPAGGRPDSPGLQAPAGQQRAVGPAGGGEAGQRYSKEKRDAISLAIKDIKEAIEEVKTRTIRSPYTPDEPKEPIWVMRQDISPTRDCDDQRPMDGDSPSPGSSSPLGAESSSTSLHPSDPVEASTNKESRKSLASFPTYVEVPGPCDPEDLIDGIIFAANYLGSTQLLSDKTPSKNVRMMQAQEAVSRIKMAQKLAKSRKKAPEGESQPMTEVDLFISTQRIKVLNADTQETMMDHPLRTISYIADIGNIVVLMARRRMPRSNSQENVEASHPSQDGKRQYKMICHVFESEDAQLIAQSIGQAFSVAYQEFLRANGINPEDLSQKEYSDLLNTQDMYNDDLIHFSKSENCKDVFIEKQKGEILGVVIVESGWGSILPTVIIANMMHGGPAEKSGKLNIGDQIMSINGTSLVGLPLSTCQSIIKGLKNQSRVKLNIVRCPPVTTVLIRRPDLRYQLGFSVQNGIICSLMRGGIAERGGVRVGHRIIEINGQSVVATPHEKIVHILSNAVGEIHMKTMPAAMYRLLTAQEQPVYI

[16] = target: Luciferin 4-monooxygenase (Photinus pyralis, UniProt P08659); test: inhibition of purified Photinus pyralis luciferase – biochemical, luminescence, dose response (AID 1891)
[17] = Luminescence Cell-Based Dose Confirmation HTS to Identify Inhibitors of Platelet Dense Granule Release. [Related pubchem assays: 1663 (Primary HTS), 1678 (Summary of Project)]; assay type: functional
[18] = target: T2, Voltage-gated N-type calcium channel alpha-1B subunit/Amyloid beta A4 precursor protein-binding family A member 1; assay type: protein assay; remark: listed apart in the source
Beta-galactosidase = Beta-galactosidase (Escherichia coli, UniProt Q8VNN2); test: detection-enzyme interference by beta-gal modulators – biochemical, E. coli enzyme, set 3, artefact control for CCR6 antagonist project, dose response (AID 504712); assay type: functional
[19] = Fluorescence-based cell-based high throughput dose response assay for inhibitors of the interaction of nucleotide-binding oligomerization domain containing 2 (NOD2) and the receptor-interacting serine-threonine kinase 2 (RIPK2).; assay type: functional; details: Homo sapiens
Beta Lactamase = Beta Lactamase (Pseudomonas aeruginosa, UniProt Q932Y6); test: BLA reporter interference, concentration series – BLA reporter cells, FRET fluorescence, artefact control for NOD2-RIPK2 interaction inhibitor project, dose response (AID 651552); assay type: functional, cell-based
Wee1-like protein kinase = Wee1-like protein kinase (Homo sapiens, UniProt P30291); test: HeLa cell cycle G2/M accumulation – FACS, mechanism study for Wee1 degradation inhibitor project, late-stage follow-up, panel member Wee1 Degradation (AID 2088)
Chain of Wee1-like protein kinase (P30291 whole entry): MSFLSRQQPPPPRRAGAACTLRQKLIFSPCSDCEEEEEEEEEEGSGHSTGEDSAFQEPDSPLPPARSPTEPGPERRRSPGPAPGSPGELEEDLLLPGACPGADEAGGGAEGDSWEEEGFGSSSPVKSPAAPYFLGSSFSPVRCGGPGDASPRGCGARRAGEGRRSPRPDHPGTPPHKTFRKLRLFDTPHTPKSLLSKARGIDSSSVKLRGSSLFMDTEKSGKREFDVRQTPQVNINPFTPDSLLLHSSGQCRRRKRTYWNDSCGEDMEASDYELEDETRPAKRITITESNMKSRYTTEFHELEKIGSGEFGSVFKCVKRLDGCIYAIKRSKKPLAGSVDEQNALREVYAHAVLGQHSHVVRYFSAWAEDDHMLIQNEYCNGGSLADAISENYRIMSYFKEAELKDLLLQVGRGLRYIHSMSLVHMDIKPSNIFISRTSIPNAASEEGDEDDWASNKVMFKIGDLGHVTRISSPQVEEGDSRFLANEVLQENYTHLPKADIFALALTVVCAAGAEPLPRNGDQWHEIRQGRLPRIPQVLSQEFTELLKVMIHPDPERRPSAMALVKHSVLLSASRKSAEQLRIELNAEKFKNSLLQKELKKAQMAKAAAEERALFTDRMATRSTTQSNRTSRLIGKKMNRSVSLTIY

[20] = target: G2/mitotic-specific cyclin-B1 (Homo sapiens, UniProt P14635); test: HeLa cell cycle G2/M accumulation – FACS, mechanism study for Wee1 degradation inhibitor project, late-stage follow-up, panel member Cyclin B Degradation (AID 2088)
Chain of G2/mitotic-specific cyclin-B1 (P14635 whole entry): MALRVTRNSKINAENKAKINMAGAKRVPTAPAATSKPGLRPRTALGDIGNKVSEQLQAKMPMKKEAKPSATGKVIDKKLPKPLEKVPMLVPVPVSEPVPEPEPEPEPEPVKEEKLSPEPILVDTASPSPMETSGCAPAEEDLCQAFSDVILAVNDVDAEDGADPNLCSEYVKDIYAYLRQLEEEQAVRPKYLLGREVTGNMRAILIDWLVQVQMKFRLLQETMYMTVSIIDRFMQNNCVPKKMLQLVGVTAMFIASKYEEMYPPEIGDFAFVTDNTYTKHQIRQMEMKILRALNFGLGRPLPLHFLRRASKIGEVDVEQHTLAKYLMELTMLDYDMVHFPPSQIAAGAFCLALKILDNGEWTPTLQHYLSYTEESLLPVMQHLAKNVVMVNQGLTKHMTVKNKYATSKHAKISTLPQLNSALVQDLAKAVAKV

## Cc1nn(C)c(Sc2ccccn2)c1[N+](=O)[O-]
[1]
  EC50: > 195 µM (not active)
[2]
  EC50: > 195 µM (inactive)
[3]
  EC50: > 195 µM (not active)
[4]
  EC50: 1.7 µM (active)
[5]
  EC50: 88.4 µM (active)
H4
  EC50: > 120 µM (not active)

## O=C(O)CN1C(=O)/C(=C\c2cn(-c3ccccc3)nc2-c2ccccc2)SC1=S
[6]
  IC50: > 99 µM (inactive)
BJ [7]
  EC50: 31.1 µM (active)
BJ [8]
  EC50: > 150 µM (not active)
BJ [9]
  EC50: > 150 µM (not active)
[10]
  EC50: 41.4 µM (active)

## Cc1ccc(N2CCN(CCCNC(=O)Cn3c(=O)c4cccn4c4cccnc43)CC2)cc1
Mu-type opioid receptor
  IC50: 18.8 µM (inactive)
[11]
  IC50: > 32 µM (inactive)
[12]
  IC50: 3.68 µM (active)
[13]
  IC50: 0.776 µM (active)
[14]
  IC50: 1.01 µM (active)

## COc1cccc(-c2ccc(-c3noc(-c4ccccc4F)n3)c(OC)n2)c1
Trypsin
  AC50: 14.3 µM (active)

## O=C1C=C(c2ccccc2)C(=O)N1Nc1ccccc1
[15]
  IC50: 20.4 µM (active)
[16]
  EC50: > 112 µM (not active)
[17]
  EC50: 8.82 µM (active)
[18]
  IC50: 45.8 µM (active)
Beta-galactosidase
  IC50: > 66.6 µM (inactive)
[19]
  IC50: 1.68 µM (active)
Beta Lactamase
  IC50: 18.7 µM (inactive)

## Cc1cc(O)nc(-n2nc(C)cc2NC(=O)c2ccccc2Cl)n1
Wee1-like protein kinase
  EC50: > 16.6 µM (active)
[20]
  EC50: > 49.7 µM (inactive)
